From patent US20240216513A1, “FATTY ACID-BIFUNCTIONAL DEGRADER CONJUGATES AND THEIR METHODS OF USE” (Novartis AG, priority 2021, published 2024)

Assay: BTK FAC plasma stability assay, PBS buffer arm
Assay type: physicochemical
Conditions: incubation to 24 h
Summary of the method: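 Compound from a 500 µM acetonitrile:water working solution was spiked into K3-EDTA plasma or Dulbecco's PBS and incubated with shaking at 38 °C. Samples taken at 0, 2, 6 and 24 h were precipitated with cold acetonitrile containing glyburide internal standard. Semi-quantitative LC-MS/MS used analyte:internal standard peak area ratios.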

Plasma stability (h) PBS: >48 h
SMILES: COc1ccc(C(=O)N2CCC3(CCN(CCc4ccc(-c5cc6c(-c7cc(F)cc(NC(=O)c8ccc(C(C)(C)O)cc8F)c7C)ncnc6[nH]5)cc4)CC3)CC2)cc1N1CCC(=O)NC1=O [Compound V, N-(3-(6-(4-(2-(9-(3-(2,4-Dioxotetrahydropyrimidin-1(2H)-yl)-4-methoxybenzoyl)-3,9-diazaspiro[5.5]undecan-3-yl)ethyl)phenyl)-7H-pyrrolo[2,3-d]pyrimidin-4-yl)-5-fluoro-2-methylphenyl)-2-fluoro-4-(2-hydroxypropan-2-yl)benzamide]
